Laboratory results taken from US8455468B2, “Methods for the treatment of a traumatic central nervous system injury” (priority 2005, dated 2013).

Experiments:
clinical = settings: human, in vivo
Method: Multiple blood samples were obtained from 11 female and 21 male trauma patients receiving PG and 1 female and 3 male patients receiving placebo infusions for 72 h. Values for CSS, CL, t1/2 and Vd were obtained using AUC(0-72) and post-infusion blood samples.
This study was approved by the Institutional Review Board of Emory University, the Drug Safety Monitoring Board (NINDS) and the FDA (IND #58,986). After obtaining informed consent, thirty-six patients meeting the inclusion criteria outlined as follows were studied. […] Inclusion criteria required that each patient be ≧18 years old, have a closed head injury arising from blunt trauma, have a moderate to severe brain injury (Index Glasgow Coma Score (GCS) 4-12) and arrive in the Emergency Department and obtain informed consent (from next-of-kin) in less than 11 hours post injury.
Aliquots of each solution were assayed for final concentration and sterility. […] Each kit contained six vials. […] The placebo kits were also formulated with 95% ethanol. Because of the alcohol concentration, doses of study drug were mixed with Intralipid® immediately prior to infusion. Each infusion dose was administered over 12 hours and repeated every 12 hours for a total of 72 hours. […] The dosing worksheet was also used to calculate the volume of study medication to be diluted in Intralipid® for each of the remaining infusion reservoirs at a standard rate of 10 cc/hr.
Nine (5 ml) samples were obtained at the following times during the infusion: pre-infusion (0), 4, 6, 12, 24, 36, 48, 60, and 72 hours. An additional five samples were obtained following cessation of infusion at: 0.5, 1, 2, 4 and 8 hours. Samples were allowed to clot, and then centrifuged. After that, the serum was removed and stored at −70° C. until analyzed.
The primary pharmacokinetic parameter, CL, was estimated as the ratio of the dose to area under the serum concentration-time curve (AUC). AUC's were calculated using the linear trapezoidal rule (Veng-Pedersen (1989) Clin Pharmacokinet, 17(6):424-40). The elimination phase rate constant, ke, was calculated from the serum concentration-time data following the termination of the infusion using iterative non-linear regression (WinNonlin®, Pharsight Corporation, Mountain View, Calif.). Volume of Distribution was estimated as the ratio of CL and ke. Css was estimated as the ratio of Dose and CL. Actual Css was defined as the concentration achieved when the slope of the serum concentration-time curve for three or more consecutive samples was not different from zero.
Predicted Css concentrations were calculated as the ratio of the infusion rate/clearance. Differences between predicted and measured Css were made using a ‘t’ test for repeated measures. A Bland-Altman analysis was conducted to assess the magnitude of any bias associated with this approach (Bland and Altman (1986) Lancet, 1(8476):307-10). Pharmacokinetic parameter comparisons between male and female were accomplished using a ‘t’ test for independent means. A p value of less than 0.05 was considered the minimum level for rejection of the null hypothesis.

[1] = Stability of progesterone solutions (HPLC-UV); type: physicochemical
Text: For all stability testing, the method of […], et al. was used with minor modifications ([…], et al. (1999) Journal of Pharmaceutical & Biomedical Analysis, 19(5):803-8). The method was originally validated to assess the stability of medroxyprogesterone acetate and estradiol valerate tablets. It is an isocratic HPLC-UV method utilizing external standardization. A 5 micron, 4.6×250 mm BDS-Hypersil C-18 column (Keystone Scientific) was used and the analyses were completed on an Agilent 1100 model HPLC system with photodiode array detector. The mobile phase consisted of 40% 0.07M ammonium acetate buffer, pH 7.2 and 60% acetonitrile. Detection was at […]. […] Reproducibility as assessed by 10 injections of the same preparation on multiple different days was always less that 10%. […] A five point standard curve was run with each analysis.

[2] = Solubility of progesterone in carrier; type: physicochemical
moderate to severe TBI = test: Pilot phase II randomized double-blind trial of progesterone for traumatic brain injury, preliminary evaluation (Example 2); type: in vivo, human
Method: The administration protocol was carried out was described above in Example 1.
To determine if a therapeutic response was achieved, the following endpoints were monitored: • ICP reduction determined by calculating “therapeutic intensity level” (ICP-TIL); • duration of coma (injury to awaking); • mortality one-month post injury; • neurological outcome 1 month and 1 year post-injury, as determined by Glasgow outcome scale (GOS), Disability rating scale (DRS) and Galveston orientation and amnesia test (GOAT).
The administration protocol and pharmaceutical composition administered are described in detail in Example 1. Follow up regarding condition occurred at 30 days and 1 year.

acute TBI [3] = tested on: acute TBI
Method: This phase II, randomized, double blind, placebo-controlled clinical trial was conducted at an urban, level I trauma center. 100 adults presenting within 11 hours of a blunt TBI with a Glasgow Coma Scale score of 4-12 were enrolled with proxy consent. […] Blinded observers closely monitored patients for the occurrence of adverse events, and initial functional outcomes were assessed 30 days post-injury. The primary safety outcome was difference in adverse event rates, including mortality. The primary measure of activity was dichotomized Glasgow outcome scale extended (GOSE) 30 days post injury.
We also hoped to detect signals of activity.
According to the U.S. Food and Drug Administration, an “adverse event” is any undesirable medical event occurring to a subject in a clinical trial, whether or not related to the study drug. This includes events not seen at baseline, or worsened if present at baseline. “Serious adverse events” are defined as death, immediate risk of death, or suspicion that use or continued use would result in the patient's death, prolongation of existing hospitalization, persistent or significant disability/incapacity, or a congenital anomaly/birth defect.
These included any thromboembolic event (deep vein thrombosis, thrombophlebitis, ischemic myocardial infarction, pulmonary embolism, stroke or transient ischemic attack), elevated liver enzymes, temperature elevation, allergic reactions, and hyperglycemia. […] An independent internal safety monitor made the determination if an adverse event was associated with study treatment. Both the FDA and an independent NIH-appointed data safety monitoring board independently reviewed these determinations.
Interventions: Following proxy consent, patients were placed in one of 8 clinical subgroups defined by gender (male versus female), race (black versus all others) and TBI severity (moderate versus severe). […] This asymmetric approach was adopted at the request of our NIH-appointed DSMB to maximize the number of patients receiving study drug while maintaining blinding.
Whenever a patient was enrolled, the next kit in sequence for that subgroup was used to prepare infusions. […] The remaining vials were used to prepare 5 subsequent 12-hour infusions at the same standard rate of 10 mls/hour for a total of 3 days of treatment. Details of drug monitoring are reported elsewhere (Wright et al. (2005) J Clin Pharmacol 45(6):640-648).
Methods of Measurement: To assess drug safety, study personnel rounded daily to document the occurrence of adverse events (AEs) or serious adverse events (SAES). Hourly vital signs (blood pressure, heart rate, respiratory rate, temperature, and pulse oximetry), intracranial pressure readings, and other parameters (mean arterial pressure, cerebral perfusion pressure, and fluid balance), were abstracted from each patient's chart. Laboratory values were obtained from the hospital's information system, and concomitant medications and interventions were noted.
Whenever an SAE occurred, an independent board-certified neurosurgeon assessed its potential relationship to study treatment using pre-defined scale. SAEs were reported within 24 hours to the Institutional Review Board (IRB), our NIH-appointed Data Safety Monitoring Board (DSMB), and the U.S. Food and Drug Administration. All other adverse events were reported to on a weekly basis.
Primary Data Analysis—Treatment and placebo groups were compared with respect to a variety of demographic, historical and prehospital characteristics to ensure that important independent predictors of outcome were equally distributed. Next, the groups were compared with respect to rates of adverse and serious adverse events, using Fisher's exact test.

acute TBI [4] = test: Phase II ProTECT trial: physiological parameters during infusion; type: in vivo, human
Text: Primary Data Analysis—Treatment and placebo groups were compared with respect to a variety of demographic, historical and prehospital characteristics to ensure that important independent predictors of outcome were equally distributed. Next, the groups were compared with respect to rates of adverse and serious adverse events, using Fisher's exact test. Generalized linear model analysis using a negative binomial distribution was used to compare rates of events that occurred multiple times per patient within the first 30 days (McCullagh and Nelder (1989) Generalized Linear Models (2nd ed, Chapman & Hill)). Then, group specific differences in 30-day outcomes. Fisher's exact test was used to analyze GOSE scores dichotomized into “good or moderate recovery” versus all other levels. Wilcoxon's rank sum test was used to compare group specific DRS scores. Mean and median durations of coma and post-traumatic amnesia were compared using student's t-test. All analyses were stratified on an a priori basis by brain injury severity (iGCS 4-8 (severe) versus iGCS 9-12 (moderate)). Longitudinal mixed effects models were used to analyze ICP-TIL as well as other hourly or daily clinical measurements from enrollment through treatment day 4.

acute TBI [5] = test: Phase II ProTECT trial: outcome variables 30 days post injury; type: in vivo, human
Text: In addition to monitoring subjects for signs of harm, we hoped to detect signals of activity. […] For this preliminary study, our primary outcome of interest was Glasgow Outcome Scale Extended (GOSE) 30 days post-injury. […] Thirty days following each injury event, we assessed each patient's Glasgow Outcome Score Extended (GOSE) and Disability Rating Scale (DRS). Patients who were severely impaired were classified as “not testable”-a surrogate marker for a poor outcome. Reliability codes were used to record reasons for non-administration of a particular measure, such as physical impairment (e.g., hemiparesis) cognitive impairment (e.g., could not understand instructions), or intoxication. One-year outcomes will be reported at a later date. […] Our secondary aim was to look for signs of drug activity by assessing several measures of outcome. Our a priori primary measure of outcome was the Glasgow Outcome Scale-Extended ([…] et al. (1998) Journal of Neurotrauma 15(8):587-597). […] (1987) Journal of Neurosurgery 67(6):832-840) and 5) the Disability Rating Scale (DRS) (Hall et al. […] Variables determined to be independently associated with all-cause mortality or CNS related-death, such as iGCS (dichotomized into moderate versus severe), injury severity score and Marshall CT score were incorporated in a stepwise logistic regression analyses. […]

SMILES: CC(=O)[C@H]1CC[C@H]2[C@@H]3CCC4=CC(=O)CC[C@]4(C)[C@H]3CC[C@]12C [progesterone, pregn-4-ene-3,20-dione]
- maintenance infusion rate to achieve target concentration of 450±100 ng/mL (clinical; both): approximately 0.8 mg/kg/h
- clearance (clinical; both, CL): 28.8 mL/min/kg
- half-life (clinical; both, terminal half-life): 1.78 ± 1 h
- Vd (clinical; female): 1.33 L/kg
- concentration at 0 h (clinical; female): 2.86 ± 1.37 ng/mL
- clearance (clinical; female, CL): 31.3 mL/min/kg
- Vd (clinical; male): 1.62 L/kg
- concentration at 0 h (clinical; male): 2.53 ± 1.73 ng/mL
- clearance (clinical; male, CL): 27.7 mL/min/kg
- clearance (clinical; male, iv): 22.2 mL/min/kg
- stability of Intralipid solutions containing progesterone in 95% ethyl alcohol [1]: ≥ 24 h
- stability of solution of progesterone in 95% ethyl alcohol ([1]; room temperature): up to 2 years
- solubility [2]: soluble only in alcohol
- reduction in brain deaths (moderate to severe TBI; vs control): 60%
- proportion of subjects experiencing brain death (moderate to severe TBI; vs group B, p=0.0295 Fisher's exact test): significantly lower proportion
- Death within 30 days (acute TBI [3]; 30-day adverse event rate): 13.0%
- Acute respiratory distress syndrome (acute TBI [3]; both, human, in vivo, 30 days): 2.6%
- Cardiac Arrhythmia (acute TBI [3]; both, human, in vivo, 30 days): 5.2%
- Central nervous system infection (acute TBI [3]; both, human, in vivo, 30 days): 1.3%
- Cholestatic Jaundice (acute TBI [3]; both, human, in vivo, 30 days): 6.5%
- Fever (acute TBI [3]; both, human, in vivo, 30 days): 70.1%
- Gastrointestinal Bleed (acute TBI [3]; both, human, in vivo, 30 days): 5.2%
- Hyperglycemia-non DM (acute TBI [3]; both, human, in vivo, 30 days): 27.3%
- Hypertension (acute TBI [3]; both, human, in vivo, 30 days): 11.7%
- Hypotension (acute TBI [3]; both, human, in vivo, 30 days): 9.1%
- Hypothermia (acute TBI [3]; both, human, in vivo, 30 days): 5.2%
- Hypoxemia (acute TBI [3]; both, human, in vivo, 30 days): 11.7%
- Increase Liver Enzyme (acute TBI [3]; both, human, in vivo, 30 days): 6.5%
- Phlebitis at Injection Site (acute TBI [3]; both, human, in vivo, 30 days): 1.3%
- Rash or Hives (acute TBI [3]; both, human, in vivo, 30 days): 2.6%
- Seizures (acute TBI [3]; both, human, in vivo, 30 days): 5.2%
- Sepsis (acute TBI [3]; both, human, in vivo, 30 days): 2.6%
- Shock (acute TBI [3]; both, human, in vivo, 30 days): 2.6%
- Suspected Pneumonia (acute TBI [3]; both, human, in vivo, 30 days): 11.7%
- Syndrome of inappropriate ADH (acute TBI [3]; both, human, in vivo, 30 days): 1.3%
- Tachycardia (acute TBI [3]; both, human, in vivo, 30 days): 24.7%
- Thromboembolic Disease (acute TBI [3]; both, human, in vivo, 30 days): 3.9%
- adverse events specifically ascribed to administration (acute TBI [3]; in vivo): two cases of superficial phlebitis at the IV site
- deep vein thrombosis (acute TBI [3]; in vivo): Three patients
- rise in mean temperature over the infusion interval, treatment by time interaction slope (acute TBI [3]; in vivo): −0.0055
- serious adverse events attributed to study drug (acute TBI [3]; in vivo): No serious adverse events were attributed to progesterone
- mean intracranial pressure levels (ICPs) trend (acute TBI [4]; first 4 days post-injury, subjects with monitors, not statistically significant): remained stable
- Mean Duration of Pressures Exceeding Threshold Values: CPP < 60 (acute TBI [4]; in vivo): 6.9 h
- Mean Duration of Pressures Exceeding Threshold Values: ICP > 25 (acute TBI [4]; in vivo): 5.0 h
- Mean Duration of Pressures Exceeding Threshold Values: MAP < 70 (acute TBI [4]; in vivo): 2.5 h
- Mean Duration of Pressures Exceeding Threshold Values: Systolic BP < 90 (acute TBI [4]; in vivo): 2.7 h
- Mean Frequency of Pressures Exceeding Threshold Values: CPP < 60, Rate/1000 consecutive readings (acute TBI [4]; in vivo): 92.9
- Mean Frequency of Pressures Exceeding Threshold Values: ICP > 25, Rate/1000 consecutive readings (acute TBI [4]; in vivo): 70.2
- Mean Frequency of Pressures Exceeding Threshold Values: MAP < 70, Rate/1000 consecutive readings (acute TBI [4]; in vivo): 29.5
- Mean Frequency of Pressures Exceeding Threshold Values: Systolic BP < 90, Rate/1000 consecutive readings (acute TBI [4]; in vivo): 32.1
- Percent of Patients with Clinical Values Exceeding the Threshold: CPP < 60 (acute TBI [4]; in vivo): 48.7%
- Percent of Patients with Clinical Values Exceeding the Threshold: ICP > 25 (acute TBI [4]; in vivo): 32.4%
- Percent of Patients with Clinical Values Exceeding the Threshold: MAP < 70 (acute TBI [4]; in vivo): 29.0%
- Percent of Patients with Clinical Values Exceeding the Threshold: Systolic BP < 90 (acute TBI [4]; in vivo): 29.0%
- Cerebral Perfusion Pressure, mean (acute TBI [4]; infusion day 0): 70.3 mmHg
- Cerebral Perfusion Pressure, mean (acute TBI [4]; infusion day 1): 73.4 mmHg
- Fluid Balance, mean (acute TBI [4]; infusion day 1): 767.9 + mls
- Cerebral Perfusion Pressure, mean (acute TBI [4]; infusion day 2): 75.9 mmHg
- Fluid Balance, mean (acute TBI [4]; infusion day 2): 1189.5 + mls
- Cerebral Perfusion Pressure, mean (acute TBI [4]; infusion day 3): 74.9 mmHg
- Fluid Balance, mean (acute TBI [4]; infusion day 3): 802.0 + mls
- Cerebral Perfusion Pressure, mean (acute TBI [4]; infusion day 4): 73.8 mmHg
- Fluid Balance, mean (acute TBI [4]; infusion day 4): 818.7 + mls
- Disability Rating Score: Total DRS, mean (acute TBI [5]; Index GCS = 9-12): 5
- DRS scores vs placebo (acute TBI [5]; moderately brain-injured patients): significantly better DRS scores
